One data set has as its system P. aeruginosa ATCC27853. Description: microbe, parasite or virus in culture. The settings on record: ATCC27853, 18 h. The essentials:
(§1)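 Peptide growth inhibition measured by twofold dilution against mid-log bacteria (2×10^4 cells/100 μl), 37° C, 18 hours; endpoint was absence of cell division. Meropenem, ceftazidime, ceftriaxone and vancomycin were run in parallel.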

The subject of a further data set is S. aureus ATCC25923. Nature of the data set: microbe, parasite or virus in culture. As to conditions: ATCC25923, 18 h. The essentials: as §1
A further data set relates to S. aureus ATCC29213. Nature of the data set: microbe, parasite or virus in culture. The settings on record: ATCC29213, 18 h. The essentials: as §1
The subject of another data set is S. aureus MW2. Nature of the data set: microbe, parasite or virus in culture. The settings on record: S. aureus MW2, antibiotics-tolerant; 37° C., 18 hours. An outline of the steps: as §1
Another data set relates to S. aureus USA300. Nature of the data set: microbe, parasite or virus in culture. The settings on record: S. aureus USA300, antibiotics-tolerant; 37° C., 18 hours. An outline of the steps: as §1
The next data set has as its system E. coli ATCC 25922. Nature of the data set: Time-kill kinetics. The class given is cell-based, Escherichia coli. The settings on record: at MIC, after 20 min of treatment. The procedure: Time-killing kinetics were analyzed for E. coli ATCC 25922 and S. aureus ATCC 25923 in the presence of PEP27-2 at their respective MICs. The bacterial cells were cultured overnight until they reached the exponential growth phase; they were then incubated at 37° C. for an additional 10 min from 0 min to 1 h. The total bacterial population was then stained with QUANTOM total cell staining dye, after which the stained cells were mixed with QUANTOM cell loading buffer and loaded into QUANTOM M50 Slides. The slides were centrifuged using the QUANTOM centrifuge to evenly distribute them throughout the counting chamber and ensure accurate cell counts. Intracellular fluorescence was detected using the QUANTOM Tx microbial cell counter, which captures and counts cells automatically (Logos Biosystems, Gyeonggi-do, South Korea).

SMILES strings stand for the structures. ≈ marks a conversion by molar mass, not a printed value. Where “and” joins values, the source holds several entries; their conditions need not be identical. Identical values can stand only once. Where a SMILES comes first, the peptide text is derived from it.

As for `CSCC[C@H](N)C(=O)N[C@@H](Cc1c[nH]c2ccccc12)C(=O)N[C@@H](CCCCN)C(=O)N[C@@H](Cc1c[nH]c2ccccc12)C(=O)N[C@@H](Cc1ccccc1)C(=O)N[C@@H](Cc1c[nH]cn1)C(=O)N[C@@H](CC(N)=O)C(=O)N[C@H](C(=O)N[C@@H](CC(C)C)C(=O)N[C@@H](CO)C(=O)N[C@@H](Cc1c[nH]c2ccccc12)C(=O)NCC(=O)N[C@@H](Cc1c[nH]c2ccccc12)C(=O)N[C@@H](CC(C)C)C(=O)N[C@@H](CC(C)C)C(=O)N[C@@H](C)C(=O)N[C@@H](CC(=O)O)C(=O)N[C@@H](CCCCN)C(=O)N[C@@H](CCCNC(=N)N)C(=O)N1CCC[C@H]1C(=O)N[C@@H](C)C(=O)N[C@@H](CCCNC(=N)N)C(=O)N[C@@H](CC(=O)O)C(=O)N[C@@H](Cc1ccc(O)cc1)C(=O)N[C@@H](CC(N)=O)C(=O)N[C@@H](CCCNC(=N)N)C(=O)N[C@@H](CCCCN)C(N)=O)C(C)C` [PEP27-2] (H-MWKWFHNVLSWGWLLADKRPARDYNRK-NH2), the Minimal inhibitory concentration in the data set on P. aeruginosa ATCC27853 was 4 µM (≈ 13.9 µg/mL); with S. aureus ATCC25923 it was 2 µM (≈ 6.95 µg/mL); in the data set with S. aureus ATCC29213, 2 µM (≈ 6.95 µg/mL); with S. aureus MW2, 3 µM and 4 µM; with S. aureus USA300, 2 µM (≈ 6.95 µg/mL). Besides, in the data set on E. coli ATCC 25922, the “decrease in E. coli cell viability” value is 98.63%.

(Values after patent publication US12180252B2, “Peptide derived from PEP27 peptide and uses thereof” (priority 2021, dated 2024).)
